Two compounds from patent publication US11744844B2, “Selective estrogen receptor degraders” (Eli Lilly and Company, priority 2021, dated 2023) can be followed below.

Where a name gives a salt, the structure may show the parent alone.

The target of one test is T1, ERα (Homo sapiens, UniProt P03372).
T1 construct: measure the degradation of ERα by a test compound in an ERα positive breast cancer cell line such as MCF7; host or cells: MCF7
T1 sequence (P03372 1-595): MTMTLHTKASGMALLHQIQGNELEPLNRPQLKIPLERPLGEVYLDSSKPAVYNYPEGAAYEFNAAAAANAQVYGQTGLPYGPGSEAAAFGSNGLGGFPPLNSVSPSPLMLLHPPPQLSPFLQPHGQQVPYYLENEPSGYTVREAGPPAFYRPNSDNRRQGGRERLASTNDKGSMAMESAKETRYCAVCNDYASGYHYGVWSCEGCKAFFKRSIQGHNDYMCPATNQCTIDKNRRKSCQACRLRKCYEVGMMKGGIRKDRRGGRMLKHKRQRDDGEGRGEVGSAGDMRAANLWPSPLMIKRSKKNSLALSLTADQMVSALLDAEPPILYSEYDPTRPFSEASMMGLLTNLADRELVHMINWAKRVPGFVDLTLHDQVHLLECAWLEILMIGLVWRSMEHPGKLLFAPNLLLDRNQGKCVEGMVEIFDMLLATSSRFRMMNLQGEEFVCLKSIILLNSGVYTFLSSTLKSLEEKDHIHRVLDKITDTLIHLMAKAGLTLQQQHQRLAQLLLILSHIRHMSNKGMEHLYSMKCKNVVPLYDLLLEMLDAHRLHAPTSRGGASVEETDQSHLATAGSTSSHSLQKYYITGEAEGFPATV
Nature of the test: PRα induction assay in MCF7 cells (ERα agonism). In kind it is cell-based. Particulars: MCF7 breast cancer cells, 24 hours, up to 2 μM. How it is done:
The purpose of the following PRα induction assay is to determine whether a test compound has agonistic activity against ERα receptor (an agonist would be expected to activate the receptor).
Culture MCF7 (purchased from ATCC HTB-22) in DMEM media supplemented with 10% FBS, 0.01 mg/mL human insulin 1 and 1% penicillin/streptomycin antibiotics and plate the cells (prior to becoming 70% confluent) in 384-well flat-bottom plates at a density of 4,000 cells per well in 20 μL volume in DMEM phenol red free media containing 10% FBS (charcoal stripped). Incubate the cells overnight in a cell culture incubator (5% CO2, 95% relative humidity at 37° C.) and allow the cells to attach to the plate. The following day dose the cells with test compound. Use an Echo 555 acoustic dispenser to prepare compound serial dilutions (1:3) in a range from 6 μM to 0.0003 μM. […]
The following day wash cells with PBS 0.05% TWEEN® 20 (2×20 μL) and incubate with secondary antibody (20 μL/well) (1:1000 dilution, Goat anti-rabbit IgM ALEXA FLUOR™ 488) in PBS 1% BSA for 105 minutes at room temperature. […] Scan plates with ACUMEN EXPLORER™ (Laser-scanning fluorescence microplate cytometer manufactured by TTP LABTECH LTD) to measure PRα. […]

Test [1] has as its system MCF7 ESR1 Y537N mutant cells. The test is described as follows: Cell proliferation assay in MCF7-ESR1 Y537N-682. The format is cell-based. Particulars: Homo sapiens, 168 h; MCF7-ESR1 Y537N-682, seven days; read-out: Relative IC50 MCF7 ESR1 Y537N mutant cells, cell proliferation. How it is done:
The purpose of the following cell proliferation assays generally is to detect whether a test compound has effects on cell proliferation.
Seed MCF7 (purchased from ATCC HTB-22) cells at a density of 2,000 cells per well in DMEM phenol red free media 10% FBS (20 μL volume) (charcoal stripped) into a clear bottom 384-well cell culture plate. Plate MCF7-ESRY537N-682 (generated by CRISPR/Cas9 gene editing of ESr1 gene in MCF7 cells, clone #682) in DMEM media supplemented with 10% FBS, and 1% penicillin/streptomycin antibiotics at a density of 1000 cells per well. Incubate the plates at 37° C. and 5% CO2. The following day dose the cells with the test compound. Use an Echo 555 acoustic dispenser to prepare test compound serial dilutions (1:3) in a range from 60 μM to 0.003 μM. Dose the cells with the addition of 5 μL from the serial dilution plate to the cell plate, producing a final DMSO concentration of 0.2% with a final test compound concentration dose range between 20 and 0.001 μM. For the maximum point use media containing 0.2% of DMSO and for the minimum point use fulvestrant diluted at 2 μM final concentrations in the growth media containing 0.2% DMSO. After dosing with the test compound, incubate the cell plates at 37° C. and 5% CO2. […] Scan the plates with ACUMEN EXPLORER™ (Laser-scanning fluorescence microplate cytometer manufactured by TTP LABTECH LTD).

`O=S(=O)(O)Oc1ccc2c3c(cnc2c1)-c1ccc(C(F)(F)F)cc1O[C@@H]3c1ccc(OCCN2CC(CF)C2)cc1` [Example 1, [(5R)-5-[4-[2-[3-(Fluoromethyl)azetidin-1-yl]ethoxy]phenyl]-8-(trifluoromethyl)-5H-chromeno[4,3-c]quinolin-2-yl]hydrogen sulfate]: the “agonistic activity (PRα induction)” value on ERα was “no significant agonistic activity”. Also, the IC50 in test [1] turned out to be 0.702 ± 0.389 µM.
The like results for `O=C(O)[C@H]1O[C@@H](Oc2ccc3c4c(cnc3c2)-c2ccc(C(F)(F)F)cc2O[C@@H]4c2ccc(OCCN3CC(CF)C3)cc2)[C@H](O)[C@@H](O)[C@@H]1O` [Example 2, (2S,3S,4S,5R,6S)-6-[[(5R)-5-[4-[2-[3-(Fluoromethyl)azetidin-1-yl]ethoxy]phenyl]-8-(trifluoromethyl)-5H-chromeno[4,3-c]quinolin-2-yl]oxy]-3,4,5-trihydroxy-tetrahydropyran-2-carboxylic acid] were, in that order, “no significant agonistic activity” and 1.5 ± 0.966 µM.
